# Laboratory results: US6800637B2, “Antidepressant indolealkyl derivatives of heterocycle-fused benzodioxan methylamines” (Wyeth, priority 2002, dated 2004)
# Like-named read-outs stand apart in the source and are kept apart here.
# How the values were obtained:
# serotonin transporter = target: T1, serotonin transporter (Rattus norvegicus, UniProt P31652); test: Displacement of 3H-paroxetine from male rat frontal cortical membranes (serotonin transporter affinity); format: binding; details: read-out: 5-HT Transporter Affinity KI
# T1 construct: displace ^3H-paroxetine from male rat frontal cortical membranes; from tissue; host or cells: male rat frontal cortex membranes
# [1] = target: T2, cloned human 5HT1A receptors (Homo sapiens, UniProt P08908); test: 35S-GTPγS binding assay, membranes containing cloned human 5HT1A receptors; format: biochemical; details: for IC50: antagonist potency, reversal of the effects of the standard agonist 8-OHDPAT, read-out: 5-HT1A Function IC50
# T2 construct: expressed in transfected cells
# T2 sequence (P08908 1-422): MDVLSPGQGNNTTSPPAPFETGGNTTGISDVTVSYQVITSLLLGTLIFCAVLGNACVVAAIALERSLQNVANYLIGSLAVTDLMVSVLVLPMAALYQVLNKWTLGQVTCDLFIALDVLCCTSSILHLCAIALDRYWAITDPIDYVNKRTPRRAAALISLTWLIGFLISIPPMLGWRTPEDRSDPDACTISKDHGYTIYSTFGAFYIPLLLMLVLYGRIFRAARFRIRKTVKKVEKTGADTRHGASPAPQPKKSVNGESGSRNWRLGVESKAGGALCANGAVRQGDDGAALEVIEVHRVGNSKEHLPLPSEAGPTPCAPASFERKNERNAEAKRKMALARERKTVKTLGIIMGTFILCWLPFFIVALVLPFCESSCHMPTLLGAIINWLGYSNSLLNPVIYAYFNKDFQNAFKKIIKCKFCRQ
# Experimental: Antagonist activity at 5-HT1A receptors was established by using a ^35S-GTPγS binding assay similar to that used by Lazareno and Birdsall (Br. J. Pharmacol. 109: 1120, 1993), in which the test compound's ability to affect the binding of ^35S-GTPγS to membranes containing cloned human 5HT1A receptors was determined. Agonists produce an increase in binding whereas antagonists produce no increase but rather reverse the effects of the standard agonist 8-OHDPAT. The test compound's maximum inhibitory effect is represented as the Imax, while its potency is defined by the IC50.
# human 5-HT1A receptors = target: T3, human 5-HT1A receptors (Homo sapiens, UniProt P08908); test: Displacement of [3H] 8-OHDPAT from 5-HT1A receptor, CHO cells stably transfected with human 5-HT1A receptors; format: binding; details: CHO cells with human 5-HT1A receptors, read-out: 5-HT1A Receptor Affinity KI
# T3 construct: expressed in transfected cells; host or cells: CHO cells
# T3 sequence (P08908 1-422): T2 sequence (P08908 1-422)
# Source text: High affinity for the serotonin 5-HT1A receptor was established by testing the claimed compound's ability to displace [^3H] 8-OHDPAT (dipropylaminotetralin) from the 5-HT1A serotonin receptor following a modification of the procedure of Hall et al., J. Neurochem. 44, 1685 (1985) which utilizes CHO cells stably transfected with human 5-HT1A receptors.
# [2] = maximum inhibitory effect, read-out: 5-HT1A Function (Imax)
# T1 sequence (P31652 whole entry): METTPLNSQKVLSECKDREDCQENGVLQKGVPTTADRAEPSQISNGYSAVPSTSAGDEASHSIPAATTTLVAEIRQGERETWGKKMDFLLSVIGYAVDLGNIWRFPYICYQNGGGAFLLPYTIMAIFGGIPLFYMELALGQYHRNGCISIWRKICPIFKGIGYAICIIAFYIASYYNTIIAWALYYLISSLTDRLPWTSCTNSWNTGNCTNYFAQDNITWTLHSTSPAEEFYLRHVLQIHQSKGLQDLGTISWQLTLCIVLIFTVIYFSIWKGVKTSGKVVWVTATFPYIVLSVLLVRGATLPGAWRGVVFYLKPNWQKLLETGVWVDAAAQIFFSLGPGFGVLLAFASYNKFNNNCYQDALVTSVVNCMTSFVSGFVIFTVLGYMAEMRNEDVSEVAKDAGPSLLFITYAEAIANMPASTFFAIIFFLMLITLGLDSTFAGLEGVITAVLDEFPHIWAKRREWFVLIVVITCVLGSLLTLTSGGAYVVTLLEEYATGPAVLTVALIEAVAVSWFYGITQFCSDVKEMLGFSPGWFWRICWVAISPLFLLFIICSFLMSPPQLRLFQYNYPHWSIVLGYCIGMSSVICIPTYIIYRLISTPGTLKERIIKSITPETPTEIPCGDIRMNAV
Ki (serotonin transporter) [nM],IC50 [1] [nM],"Emax [1, 2] [%]",Ki (human 5-HT1A receptors) [nM],"EC50 ([1]; given as EC50, read-out: 5-HT1A Function EC50) [nM]","Emax ([1]; given as Emax, read-out: 5-HT1A Function Emax) [%]",Structure (SMILES)
2.07,25.8,94.1,0.22,–,–,"Cc1ccc2c3c(ccc2n1)OCC(CNCCCc1c[nH]c2c(F)cccc12)O3 (centres unmarked) [Example 8, N-[3-(7-Fluoro-1H-indol-3-yl)propyl]-N-(8-methyl-2,3-dihydro-[1,4]dioxino[2,3-f]quinolin-2-ylmethyl)amine]"
1.05,64.6,95,0.32,–,–,"Cc1ccc2c3c(ccc2n1)OCC(CNCCCc1c[nH]c2c(F)cc(F)cc12)O3 (centres unmarked) [Example 13, N-[3-(5,7-Difluoro-1H-indol-3-yl)propyl]-N-(8-methyl-2,3-dihydro-[1,4]dioxino[2,3-f]quinolin-2-ylmethyl)amine]"
0.6,43.5,94,5.47,–,–,"CCN(CCCc1c[nH]c2ccc(F)cc12)CC1COc2ccc3nc(C)ccc3c2O1 (centres unmarked) [Example 25, N-Ethyl-N-[3-(5-Fluoro-1H-indol-3-yl)propyl]-N-(8-methyl-2,3-dihydro-[1,4]dioxino[2,3-f]quinolin-2-ylmethyl)amine]"
2.4,66.6,78.9,0.56,–,–,"Cc1ccc2c3c(ccc2n1)OCC(CNCCCCc1cn(C)c2ccc(F)cc12)O3 (centres unmarked) [Example 35, [4-(5-Fluoro-1-methyl-1H-indol-3-yl)-butyl]-(8-methyl-2,3-dihydro-[1,4]dioxino[2,3-f]quinolin-2-ylmethyl)-amine]"
2.75,–,–,36,–,–,"Cc1ccc2c3c(ccc2n1)OCC(CN(C)CCCc1cn(C)c2ccc(F)cc12)O3 (centres unmarked) [Example 42, [3-(5-Fluoro-1-methyl-1H-indol-3-yl)-propyl]-methyl-(8-methyl-2,3-dihydro-[1,4]dioxino[2,3-f]quinolin-2-ylmethyl)-amine]"
0.96,92.5,76.8,0.64,–,–,"CCc1ccc2c3c(ccc2n1)OCC(CNCCCc1c[nH]c2ccc(F)cc12)O3 (centres unmarked) [Example 5, N-[3-(5-Fluoro-1H-Indol-3-yl)propyl]-N-(8-ethyl-2,3-dihydro-[1,4]dioxino[2,3-f]quinolin-2-ylmethyl)amine]"
31,88.6,80.3,2.03,–,–,COc1ccc2[nH]cc(CCNCC3COc4ccc5nc(C)ccc5c4O3)c2c1 (centres unmarked) [Example 1]
7,1980,100,17.7,–,–,"Cc1ccc2c3c(ccc2n1)OCC(CN(C)CCCc1cn(C)c2ccc(C#N)cc12)O3 (centres unmarked) [Example 40, 1-Methyl-3-{3-[methyl-(8-methyl-2,3-dihydro-[1,4]dioxino[2,3-f]quinolin-2-ylmethyl)-amino]-propyl}-1H-indole-5-carbonitrile]"
1.31,25.8,85.5,0.06,–,–,"Cc1ccc2c3c(ccc2n1)OCC(CNCCCCn1ccc2ccc(F)cc21)O3 (centres unmarked) [Example 38, [4-(6-Fluoro-indol-1-yl)-butyl]-(8-methyl-2,3-dihydro-[1,4]dioxino[2,3-f]quinolin-2-ylmethyl)-amine]"
0.9,55.8,94,1.64,–,–,"Cc1ccc2c3c(ccc2n1)OCC(CNCCCc1c[nH]c2ccc(C#N)cc12)O3 (centres unmarked) [Example 29, 3-{3-[(8-Methyl-2,3-dihydro-[1,4]dioxino[2,3-f]quinolin-2-ylmethyl)-amino]-propyl}-1H-indole-5-carbonitrile]"
4.2,500,100,24.7,–,–,Cc1ccc2c3c(ccc2n1)OC[C@H](CN(C)CCCn1ccc2c(F)cccc21)O3 [Example 48]
1.29,71.1,61.5,1.78,–,–,"Cc1ccc2c3c(ccc2n1)OCC(CNCCCCc1c[nH]c2ccc(F)cc12)O3 (centres unmarked) [Example 10, N-[4-(5-Fluoro-1H-indol-3-yl)butyl]-N-(8-methyl-2,3-dihydro-[1,4]dioxino[2,3-f]quinolin-2-ylmethyl)amine]"
23,99,33,0.73,–,–,Cc1ccc2c3c(ccc2n1)OC[C@H](CNCCCCc1csc2ccc(Cl)cc12)O3 [Example 49]
0.5,344,100,13.1,–,–,"Cc1ccc2c3c(ccc2n1)OCC(CN(C)CCCCc1c[nH]c2ccc(F)cc12)O3 (centres unmarked) [Example 43, [4-(5-Fluoro-1H-indol-3-yl)-butyl]-methyl-(8-methyl-2,3-dihydro-[1,4]dioxino[2,3-f]quinolin-2-ylmethyl}-amine]"
1.8,68,73.1,5.35,–,–,"Cc1nc2ccc3c(c2o1)O[C@@H](CNCCCc1c[nH]c2ccc(C#N)cc12)CO3 [Example 30, 3-{3-[(2-Methyl-7,8-dihydro-[1,4]dioxino[2,3-g][1,3]benzoxazol-8-ylmethyl)amino]-propyl}-1H-indole-5-carbanitrile]"
2.4,205,97.7,35.3,–,–,"Cc1nc2ccc3c(c2o1)O[C@@H](CN(C)CCCc1c[nH]c2ccc(C#N)cc12)CO3 [Example 31, 3-{3-[M thyl-(2-methyl-7,8-dihydro-[1,4]dioxino[2,3[-g][1,3]benzoxazol-8-ylmethyl)-amino]-propyl)}-1H-indole-5-carbonitrile]"
0.38,73.9,100,3.43,–,–,"Cc1ccc2c3c(ccc2n1)OCC(CN(C)CCCc1c[nH]c2ccc(F)cc12)O3 (centres unmarked) [Example 7, N-[3-(5-Fluoro-1H-indol-3-yl)propyl]-N-methyl-N-(8-methyl-2,3-dihydro-[1,4]dioxino[2,3-f]quinolin-2-ylmethyl)amine]"
0.43,–,–,4.65,–,–,"Cc1ccc2c3c(ccc2n1)OCC(CNC(C)CCc1c[nH]c2ccc(F)cc12)O3 (single isomer, unassigned; isomer b) [Example 11 Isomer B]"
9.7,69,50,0.45,–,–,Cc1ccc2c3c(ccc2n1)OC[C@H](CNCCCc1csc2ccc(Cl)cc12)O3 [Example 50]
1,507,100,1.03,–,–,"Fc1ccc2[nH]cc(CCCNC[C@H]3COc4ccc5ncccc5c4O3)c2c1 [Example 14, N-(2,3-Dihydro-[1,4]dioxino[2,3-f]quinolin-2-ylmthyl)-N-[3-(5-fluoro-1H-indol-3-yl)propyl]amine]"
5.5,–,–,0.28,–,–,"Cc1ccc2c3c(ccc2n1)OCC(CNCCCCc1coc2ccccc12)O3 (centres unmarked) [Example 28, N-[4-(1-Benzofuran-3-yl)butyl]-N-(8-methyl-2,3-dihydro-[1,4]dioxino[2,3-f]quinolin-2-ylmethyl)amine]"
–,–,–,2.08,526,97,"CCN(CCCCc1coc2ccccc12)C[C@H]1COc2ccc3nc(C)ccc3c2O1 [Example 52, N-[4-(1-Benzofuran-3-yl)butyl]-N-ethyl-N-{[(2S)-8-methyl-2,3-dihydro[1,4]dioxino[2,3-f]quinolin-2-yl]methyl}amine]"
0.24,–,–,21,–,–,"Cc1ccc2c3c(ccc2n1)OCC(CN(C)CCCCc1c[nH]c2ccc(C#N)cc12)O3 (centres unmarked) [Example 41, 3-{4-[Methyl-(8-methyl-2,3-dihydro-[1,4]dioxino[2,3-f]quinolin-2-ylmethyl)-amino]-butyl}-1H-indole-5-carbonitrile]"
